Test results published in publication PMC8234864, “Early Effects of the Soluble Amyloid β25-35 Peptide in Rat Cortical Neurons: Modulation of Signal Transduction Mediated by Adenosine and Group I Metabotropic Glutamate Receptors” (International Journal of Molecular Sciences, 2021).
Where no end group is shown, it is not given here.

Key:
[1] = tested on: Caspase 3 (Casp3) gene expression; test: Caspase 3 gene expression by real-time RT-PCR; format: cell-based, rat; settings: 25 µM
Protocol: (§1) Total RNA was extracted using an ABI 6100 Nucleic Acid PrepStation according to the manufacturer’s protocol (Applied Biosystems Inc., Foster City, CA, USA). Total RNA from cells was isolated and stored at −80 °C. The quality of isolated RNA was estimated by the ratio A260/A280 and was in the range of 1.9–2.1. RNA integrity was evaluated by agarose gel electrophoresis according to MIQE guidelines using the “bleach gel” method. RNA concentrations were determined from the A260. One microgram of total RNA was reverse transcribed using Applied Biosystems High-Capacity cDNA Archive Kit.
(§2) To assess relative gene expression in neurons, quantitative real-time RT-PCR analysis was performed with an Applied Biosystems Prism 7500 Fast Sequence Detection System using TaqMan® universal PCR master mix according to the manufacturer’s specifications. […] Levels of RNA expression were determined using the 7500 Fast System SDS software version 1.3.1 (Applied Biosystems) according to the 2^−ΔΔCt method. […] The results from three independent repeat assays, performed in different plates each using different cDNA’s from the cultures analyzed, were averaged to produce a single mean quantity value for each mRNA.

Total mGluR = test: L-[3H]glutamate radioligand binding in intact cortical neurons; design: species or system rat; settings: for Total mGluR Bmax: L-[3H]Glutamate saturation binding
Protocol: Metabotropic glutamate receptors were determined using the radioligand L-[^3H]glutamate, as described previously. Radioligand binding assays using intact cells were performed in 24-well plates. Briefly, cells were washed with serum-free DMEM buffered with 20 mM HEPES pH 7.4 and incubated for 60 min at 37 °C in a final volume of 250 µL, in the presence of 100 μM AMPA, 100 μM NMDA, and 100 μM kainate, to block glutamate binding to these receptor types; 10 μM of the glutamate uptake inhibitor D,L-threo-β-hydroxyaspartic acid; and increasing concentrations of L-[^3H] glutamate (200 nM to 1.2 µM). Non-labeled L-Glutamate in a concentration of 10^5 times higher than the radioligand was used to determine non-specific binding. After incubation, cells were washed with 500 µL of ice-cold buffer and disrupted with 0.2% SDS. Well contents were then transferred to vials and a scintillation liquid mixture was added to measure radioactivity. At least two wells from each plate were reserved for protein concentration measurement.

PLCβ1 gene expression = PLCβ1 gene expression by real-time RT-PCR; format: cell-based, rat; settings: 25 µM
Protocol: as §1, §2

A2AR = target: T1, A2AR (Rattus norvegicus, UniProt P30543); test: [3H]ZM241385 radioligand binding in intact cortical neurons; settings: for A2AR Bmax: [3H]ZM241385 saturation binding
T1 construct: endogenous in cells; host or cells: rat primary cortical neurons (intact)
Protocol: Concerning adenosine receptor assessment by radioligand binding, [^3H]DPCPX and [^3H]ZM241385 were employed as selective A1R and A2AR radioligands, as described previously, to determine A1R and A2AR density, respectively. Briefly, primary cortical neurons growth in 24-well plates were washed with serum-free DMEM and pre-incubated with 2 U/mL ADA at 37 °C for 30 min to remove endogenous adenosine. After incubation, the radioligands [^3H]DPCPX (1–20 nM) or [^3H] ZM241385 (1–20 nM) were added in the absence or the presence of CPA in a concentration 10^4 times higher than the radioligand, to obtain non-specific binding to A1R, or 5 mM theophylline, to obtain non-specific binding to A2AR. A specific adenosine uptake inhibitor (1 µM dipyridamole) was added to the reaction mixture to block adenosine receptor ligands’ binding to adenosine transporters. After incubation at 25 °C for 2 h in a final volume of 250 µL, cells were washed with 500 µL of ice-cold buffer and disrupted with 0.2% SDS. Well contents were then transferred to vials and a scintillation liquid mixture was added to measure radioactivity. Two wells from each plate were reserved for protein concentration measurement.

[2] = tested on: A2BR (ADORA2B) gene expression; test: A2BR gene expression by real-time PCR; format: cell-based, rat; settings: 25 µM, 24 or 48 h
Protocol: as §1, §2

adenylyl cyclase (AC) = test: Adenylyl cyclase activity, basal and forskolin-stimulated; format: cell-based, rat
Protocol: AC activity was determined as previously reported by Murphy with minor modifications. Briefly, control or treated cells were pre-incubated in serum-free DMEM buffered with 20 mM HEPES, pH 7.4, supplemented with 100 µM Ro 20-1724 and 2 U/mL ADA, for 10 min at 37 °C. AC activity was stimulated using specific ligands for 15 min at 37 °C in a final volume of 250 µL. The reaction was stopped by adding 500 µL 0.1 M HCl in absolute ethanol. Once centrifuged at 12,000× g for 10 min, supernatants were evaporated in speed-vac and resuspended in 150 µL assay buffer (50 mM Tris-HCl, 4 mM EDTA). Fifty microliters of the sample were used to determine cAMP accumulation using protein kinase A as a cAMP binding protein and [^3H]cAMP as radioligand. A cAMP standard curve (0–16 pmol) was prepared in the same buffer. Incubation was stopped by rapid filtration through Whatman GF/B filters.

[3] = neurons exposed to 25 µM for 24 h
[4] = neurons exposed to 25 µM for 48 h

T1 sequence (P30543 whole entry): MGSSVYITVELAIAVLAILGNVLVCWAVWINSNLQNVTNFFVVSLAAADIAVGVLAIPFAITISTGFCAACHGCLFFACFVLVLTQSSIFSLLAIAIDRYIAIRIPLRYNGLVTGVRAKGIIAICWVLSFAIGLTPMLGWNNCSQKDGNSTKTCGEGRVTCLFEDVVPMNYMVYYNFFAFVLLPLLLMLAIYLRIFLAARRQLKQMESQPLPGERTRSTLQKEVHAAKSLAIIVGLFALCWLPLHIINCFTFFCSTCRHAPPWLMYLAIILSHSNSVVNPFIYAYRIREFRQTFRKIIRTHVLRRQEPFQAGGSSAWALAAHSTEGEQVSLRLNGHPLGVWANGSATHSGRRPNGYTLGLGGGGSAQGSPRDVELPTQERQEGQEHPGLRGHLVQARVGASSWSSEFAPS

- caspase 3 gene expression ([1]; 24 h): significant increase
- caspase 3 gene expression ([1]; 48 h): significant increase
- mGluR affinity (1/KD), % of the control value (Total mGluR; 25 µM, 24 or 48 h): ~50%
- Total mGluR density (Bmax) increase over control value (Total mGluR; 25 µM, 24 h): 61%
- Total mGluR density (Bmax) increase over control value (Total mGluR; 25 µM, 48 h): 99%
- Kd (Total mGluR; [3]): 1610 ± 423 nM
- Total mGluR Bmax (Total mGluR; [3]): 952 ± 9 pmol/mg prot
- Kd (Total mGluR; [4]): 1520 ± 163 nM
- Total mGluR Bmax (Total mGluR; [4]): 1178 ± 93 pmol/mg prot
- A2AR affinity (1/KD), change vs control (A2AR; 25 µM, 24 or 48 h): no significant variation
- Total A2AR density (Bmax), change vs control (A2AR; 25 µM, 24 h): not altered
- Total A2AR density (Bmax) increase over control value (A2AR; 25 µM, 48 h): 80%
- Kd (A2AR; [3]): 10.3 ± 1.22 nM
- A2AR Bmax (A2AR; [3]): 557 ± 56 fmol/mg prot
- Kd (A2AR; [4]): 14 ± 4.69 nM
- A2AR Bmax (A2AR; [4]): 1178 ± 43 fmol/mg prot
- basal or forskolin-stimulated AC activity vs control neurons (adenylyl cyclase (AC); 25 µM, 24 h, 5 µM forskolin): No differences
- basal AC activity (adenylyl cyclase (AC); [3]): 2.33 ± 0.55 pmol/mg/min
Sequence: GSNKGAIIGLM [Aβ25-35]
- PLCβ1 gene expression decrease over control value (PLCβ1 gene expression; 24 h): 28%
- PLCβ1 gene expression decrease over control value (PLCβ1 gene expression; 48 h): 33%
- A2BR gene expression [2]: significantly increased
